# Assay results as given in patent US20140024653A1, “COMPOSITIONS AND METHODS FOR TREATING CANCER USING PI3K INHIBITOR AND MEK INHIBITOR” (priority 2011, published 2014).
# Columns and labels:
# HEK293 = test: SRB cell growth assay, 72 h; assay type: cell-based, human; conditions: single agent, up to 50 μM
# Procedure: (§1) Cell growth and treatment were performed in 96-well microtitre plates CELLSTAR® (Greiner Bio-One, Germany). Cells harvested from exponential phase cultures by trypsinization were plated in 150 μl of media at optimal seeding densities. The optimal seeding densities for each cell line were determined to ensure exponential growth for the duration of the experiment. All cells growing without anticancer agents were sub-confluent by the end of the treatment as determined by visual inspection.
# (§2) 150 μl of cells, after a 24-hour pre-growth period, were treated by mixing with 50 μl of the compound containing media (resulting in a final DMSO concentration of 0.1%). The cells were allowed to grow at 37° C. for 72 hours. In addition, all experiments contained a few plates with cells that were processed for measurement immediately after the 24 hours recovery period. These plates contained information about the cell number that existed before treatment, at time zero, and served to calculate the cytotoxicity.
# (§3) After treatment, cells were precipitated by addition of 10% TCA. Prior to fixation, the media was aspirated as described. After an hour of incubation at 4° C., the plates were washed two times with 400 μl of deionized water. Cells were then stained with 100 μl of a 0.08% wt/v SRB. The plates were allowed to sit for at least 30 min. and washed six times with 1% acetic acid to remove unbound stain. The plates were left to dry at room temperature and bound SRB was solubilized with 100 μl of 10 mM Tris base. Measurement of optical density was performed at 560 nm on a Victor 2 plate reader (Perkin Elmer, Germany). The SRB values for A375 and H460 cell lines were near to saturation (2.5 OD units) due to the high protein content of these cells, but not cell confluence. The measurements for these cells were performed at 520 nm instead of 560 nm.
# (§4) Using these measurements, cellular responses can be calculated for incomplete inhibition of cell growth (GI), complete inhibition of cell growth (T GI) and net loss of cells (LC) due to compound activity. […] This is the drug concentration causing a 50% reduction compared to the net protein increase in control cells during the drug incubation period. In other words, GI50 is IC50 corrected for time zero. Similar to IC90, calculated GI90 values are also reported for all compounds tested. TGI was calculated from Ti=Tz. […] It was calculated as 100×[(Ti−Tz)/Tz]=−50. However, due to 72 hours treatment, low cell seeding density was required and LC50 could rarely be achieved.
# HT1080 = test: SRB cell growth assay, 72 h; assay type: cell-based, human
# Procedure: as §1, §2, §3, §4
# J82 = test: SRB cell growth assay, 72 h; assay type: cell-based, human; conditions: single agent, up to 50 μM
# Procedure: as §1, §2, §3, §4
# JAR = test: SRB cell growth assay, 72 h; assay type: cell-based, human; conditions: single agent, up to 50 μM
# Procedure: as §1, §2, §3, §4
# JEG3 = test: SRB cell growth assay, 72 h; assay type: cell-based, human; conditions: single agent, up to 50 μM
# Procedure: as §1, §2, §3, §4
# MDAMB436 = test: SRB cell growth assay, 72 h; assay type: cell-based, human; conditions: single agent, up to 50 μM
# Procedure: as §1, §2, §3, §4
# MHHES1 = test: SRB cell growth assay, 72 h; assay type: cell-based, human; conditions: single agent, up to 50 μM
# Procedure: as §1, §2, §3, §4
# NCIH82 = test: SRB cell growth assay, 72 h; assay type: cell-based, human; conditions: single agent, up to 50 μM
# Procedure: as §1, §2, §3, §4
# PLCPRF5 = test: SRB cell growth assay, 72 h; assay type: cell-based, human; conditions: single agent, up to 50 μM
# Procedure: as §1, §2, §3, §4
# SF268 = test: SRB cell growth assay, 72 h; assay type: cell-based, human; conditions: single agent, up to 50 μM
# Procedure: as §1, §2, §3, §4
# A375 = test: SRB cell growth assay, 72 h; assay type: cell-based; conditions: Homo sapiens, A-375, most sensitive cell lines
# Procedure: as §1, §2, §3, §4
# CLS439 = test: SRB cell growth assay, 72 h; assay type: cell-based; conditions: Homo sapiens, highest tested concentration 50 μM, read-out: activity (estimated)
# Procedure: as §1, §2, §3, §4
# COLO205 = test: SRB cell growth assay, 72 h; assay type: cell-based; conditions: Homo sapiens, COLO 205, most sensitive cell lines
# Procedure: as §1, §2, §3, §4
# HT29 = test: SRB cell growth assay, 72 h; assay type: cell-based; conditions: Homo sapiens, HT-29, most sensitive cell lines
# Procedure: as §1, §2, §3, §4
# NCIH292 = test: SRB cell growth assay, 72 h; assay type: cell-based; conditions: Homo sapiens, NCI-H292, most sensitive cell lines
# Procedure: as §1, §2, §3, §4
# PC3 = test: SRB cell growth assay, 72 h; assay type: cell-based; conditions: Homo sapiens, PC-3, highest tested concentration 50 μM, read-out: activity (estimated)
# Procedure: as §1, §2, §3, §4
# SF295 = test: SRB cell growth assay, 72 h; assay type: cell-based; conditions: Homo sapiens, SF-295, highest tested concentration 50 μM, read-out: activity (estimated)
# Procedure: as §1, §2, §3, §4
# SKMEL5 = test: SRB cell growth assay, 72 h; assay type: cell-based; conditions: Homo sapiens, SK-MEL-5, most sensitive cell lines
# Procedure: as §1, §2, §3, §4
# SKNAS = test: SRB cell growth assay, 72 h; assay type: cell-based; conditions: Homo sapiens, SK-N-AS, most sensitive cell lines
# Procedure: as §1, §2, §3, §4
# SKOV3 = test: SRB cell growth assay, 72 h; assay type: cell-based; conditions: Homo sapiens, SK-OV-3, highest tested concentration 50 μM, read-out: activity (estimated)
# Procedure: as §1, §2, §3, §4
# TE671 = test: SRB cell growth assay, 72 h; assay type: cell-based; conditions: Homo sapiens, TE-671, most sensitive cell lines
# Procedure: as §1, §2, §3, §4
# [1] = tested on: HCT116 tumor vascular permeability; test: tumor vascular permeability, Evans Blue extravasation / Dextran-Fitc; assay type: in vivo, SCID mice; conditions: (1) 10 mg/kg oral daily day 11 to day 13
# Procedure: HCT116 tumor cells were implanted subcutaneously in the intra-scapular region in SCID mice. […] Each agent was given by oral route on a daily schedule. Tumor growth was monitored throughout the experiment by callipering the tumors. To quantify tumor vascular permeability, tumors were excised under ketamine/Xylazine (120/6 mg/kg ip) anesthesia at day 13, 4 hours post last treatment, 30 min after 0.5% Evans Blue iv injection, and 2 min post Dextran-Fitc 100 mg/kg iv injection. Tumors were then snap frozen, and 25 μm sections obtained for fluorescence quantification. Tumors sections were imaged with Icyte at 488 nm for vascular Dextran-Fitc determination and at 633 nm for Evans-Blue extravasation determination. Respective fluorescence were quantified as the sum of integral phantoms of fluorescence intensity and expressed as the mean ratio of Evans-Blue signal/Dextran-Fitc Signal.
# [2] = mice and rats; cited from earlier work
# A204 = test: SRB cell growth assay, 72 h; assay type: cell-based; conditions: Homo sapiens, most sensitive, z-score <−1.5
# Procedure: as §1, §2, §3, §4
# CAKI1 = test: SRB cell growth assay, 72 h; assay type: cell-based; conditions: Homo sapiens, CAKI-1, most sensitive, z-score <−1.5
# Procedure: as §1, §2, §3, §4
# IGROV1 = test: SRB cell growth assay, 72 h; assay type: cell-based; conditions: Homo sapiens, IGROV-1, most sensitive, z-score <−1.5
# Procedure: as §1, §2, §3, §4
# IMR90 = test: SRB cell growth assay, 72 h; assay type: cell-based; conditions: Homo sapiens, IMR-90, most sensitive, z-score <−1.5
# Procedure: as §1, §2, §3, §4
# SW620 = test: SRB cell growth assay, 72 h; assay type: cell-based; conditions: Homo sapiens, SW-620, non-sensitive, z score >1.5
# Procedure: as §1, §2, §3, §4
compound,measurement,setting,value
"O=C(NC[C@H](O)CO)c1ccncc1Nc1ccc(I)cc1F [Compound (1), N—((S)-2,3-dihydroxypropyl)-3-(2-fluoro-4-iodo-phenylamino)isonicotinamide]",activity (cell growth inhibition),HEK293,minimal activity
same,sensitivity,HT1080,very sensitive
same,activity (cell growth inhibition),J82,minimal activity
same,activity (cell growth inhibition),JAR,minimal activity
same,activity (cell growth inhibition),JEG3,minimal activity
same,activity (cell growth inhibition),MDAMB436,minimal activity
same,activity (cell growth inhibition),MHHES1,minimal activity
same,activity (cell growth inhibition),NCIH82,minimal activity
same,activity (cell growth inhibition),PLCPRF5,minimal activity
same,activity (cell growth inhibition),SF268,minimal activity
same,IC50,A375,4.8 to 8 nM
same,IC50,CLS439,> 50000 nM
same,IC50,COLO205,4.8 to 8 nM
same,IC50,HT29,4.8 to 8 nM
same,IC50,NCIH292,4.8 to 8 nM
same,IC50,PC3,> 50000 nM
same,IC50,SF295,> 50000 nM
same,IC50,SKMEL5,4.8 to 8 nM
same,IC50,SKNAS,4.8 to 8 nM
same,IC50,SKOV3,> 50000 nM
same,IC50,TE671,4.8 to 8 nM
same,decrease of the Evans-Blue/Dextran-Fitc ratio compared to control,[1],−9%
same,clearance,[2],15 to 43.3 mL/min/kg
same,half-life,[2],2.2 to 4.7 h
same,oral bioavailability,[2],52-57%
"CCn1c(=O)c(-c2ccn[nH]2)cc2c(C)nc(N)nc21 [Compound (2b), 2-amino-8-ethyl-4-methyl-6-(1H-pyrazol-5-yl)pyrido[2,3-d]pyrimidin-7(8H)-one]",GI50,A204,< 500 nM
same,GI50,CAKI1,< 500 nM
same,GI50,IGROV1,< 500 nM
same,GI50,IMR90,< 500 nM
same,GI50,SW620,> 4000 nM
